Source: paper PMC11974712 (bioRxiv, 2025)

Target: Human Fatty Acid Binding Protein (FABP4) (Homo sapiens, UniProt P15090)
Test: Binding inhibition assay: displacement of the fluorescent probe ANS from FABP4
Details: for binding to FABP4 (in words): ANS displacement

Human Fatty Acid Binding Protein (FABP4), sequence (P15090 whole entry): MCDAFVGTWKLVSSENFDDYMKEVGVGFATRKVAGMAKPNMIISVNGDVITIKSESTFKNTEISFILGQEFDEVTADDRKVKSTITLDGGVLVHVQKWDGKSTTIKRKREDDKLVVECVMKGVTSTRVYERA

| binding to FABP4 (in words) | Kd | SMILES | fold increase in affinity relative to hydrogenated analog heptanoic acid (ratio of Kd values) |
| --- | --- | --- | --- |
| no detectable binding |  | CCCC(=O)O [Butanoic Acid] |  |
|  | 145 ± 3.1 µM | CCCCCCC(=O)O [Heptanoic Acid] |  |
| no detectable binding |  | CCCCCC(=O)O [Hexanoic Acid] |  |
|  | < 1 µM | O=C(O)C(F)(F)C(F)(F)C(F)(F)C(F)(F)C(F)(F)C(F)(F)C(F)(F)C(F)(F)C(F)(F)C(F)(F)C(F)(F)F [PFDoA, Perfluorododecanoic Acid] |  |
| no detectable binding |  | CCCCC(=O)O [Pentanoic Acid] |  |

| SMILES | binding to FABP4 (in words) | Kd | fold increase in affinity relative to hydrogenated analog heptanoic acid (ratio of Kd values) |
| --- | --- | --- | --- |
| O=C(O)C(F)(F)C(F)(F)C(F)(F)C(F)(F)C(F)(F)C(F)(F)F [PFHpA, Perfluoroheptanoic Acid] |  | 4.46 ± 0.17 µM | approximately 30 fold |
